Read-outs that look alike come from different tables or passages of the source.
How the values were obtained:
[1] = molecular target: T1, human A1 adenosine receptor (Homo sapiens, UniProt P30542); assay: [3H]DPCPX binding to human A1 receptors expressed in CHO cells
T1 construct: expressed in transfected cells; host or cells: CHO cells (membranes)
T1 sequence (P30542 1-326): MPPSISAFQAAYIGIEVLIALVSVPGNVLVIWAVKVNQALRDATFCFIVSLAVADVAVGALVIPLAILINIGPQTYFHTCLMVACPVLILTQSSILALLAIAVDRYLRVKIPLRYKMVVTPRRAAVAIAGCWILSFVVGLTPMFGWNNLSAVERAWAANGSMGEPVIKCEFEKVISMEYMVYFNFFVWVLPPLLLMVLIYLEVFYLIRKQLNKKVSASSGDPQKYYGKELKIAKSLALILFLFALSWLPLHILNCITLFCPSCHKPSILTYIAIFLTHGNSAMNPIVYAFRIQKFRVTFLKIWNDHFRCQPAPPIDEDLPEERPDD
Description: (§1) The cells were grown adherently and maintained in Dulbecco's modified Eagle's medium with nutrient mixture F12 without nucleosides at 37° C. in 5% CO2/95% air. The cells were washed with phosphate-buffered saline and scraped off flasks in ice cold hypotonic buffer ([…] Tris HCl, 2 mM EDTA, pH 7.4). The cell suspension was homogenized with a Polytron and the homogenate was centrifuged for 30 minutes at 48,000 g. The resultant membrane pellet was re-suspended in 50 mM Tris HCl buffer at pH 7.4 for A1 adenosine receptors; in 50 mM Tris HCl 10 mM MgCl, at pH 7.4 for A2A adenosine receptors; in 50 mM Tris HCl, 10 mM MgCl2, 1 mM EDTA, at pH 7.4 for A3 adenosine receptors and were utilized for binding assays.
Displacement experiments were performed for 120 minutes at 25° C. in 200 μl of buffer containing 1 nM ^3H]-DPCPX 20 μl of diluted membranes (50 μg of protein/assay) and at least 6 to 8 different concentrations of examined compounds.
(§2) The filter bound radioactivity was counted on Top Count (efficiency 57%) with Micro-Scint 20.
(§3) The filter bound radioactivity was counted on a Top Count brand Microplate Scintillation Counter (efficiency 57%) with Micro-Scint 20. […] Inhibitory binding constant. […] Results and Discussion

[2] = molecular target: T2, human A2A adenosine receptor (Homo sapiens, UniProt P29274); assay: [3H]ZM241385 binding to human A2A receptors expressed in CHO cells; settings: read-out: Ki, [3H]ZM241385 binding to human A2A receptors expressed in CHO cells
T2 construct: expressed in transfected cells; host or cells: CHO cells (membranes)
T2 sequence (P29274 whole entry): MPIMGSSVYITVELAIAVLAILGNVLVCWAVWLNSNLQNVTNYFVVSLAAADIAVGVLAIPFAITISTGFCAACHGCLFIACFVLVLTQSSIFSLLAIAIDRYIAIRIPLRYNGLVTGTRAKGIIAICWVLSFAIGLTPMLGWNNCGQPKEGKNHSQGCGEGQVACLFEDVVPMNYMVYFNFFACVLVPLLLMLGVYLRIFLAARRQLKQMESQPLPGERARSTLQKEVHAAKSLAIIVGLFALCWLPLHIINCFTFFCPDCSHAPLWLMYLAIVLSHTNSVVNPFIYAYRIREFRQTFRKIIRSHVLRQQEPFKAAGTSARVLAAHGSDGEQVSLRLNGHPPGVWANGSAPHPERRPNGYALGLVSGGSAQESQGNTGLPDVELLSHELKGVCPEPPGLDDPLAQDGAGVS
Description: as §1, §2, §3

[3] = molecular target: T3, human A2B adenosine receptor (Homo sapiens, UniProt P29275); assay: [3H]DPCPX binding to human A2B receptors expressed in HEK293 cells; set-up: host or cells: HEK 293 cells (membranes); settings: geometric mean (95% confidence interval); >1000 = no appreciable binding; read-out: Ki, [3H]DPCPX binding to human A2B receptors expressed in HEK293 cells
T3 sequence (P29275 1-332): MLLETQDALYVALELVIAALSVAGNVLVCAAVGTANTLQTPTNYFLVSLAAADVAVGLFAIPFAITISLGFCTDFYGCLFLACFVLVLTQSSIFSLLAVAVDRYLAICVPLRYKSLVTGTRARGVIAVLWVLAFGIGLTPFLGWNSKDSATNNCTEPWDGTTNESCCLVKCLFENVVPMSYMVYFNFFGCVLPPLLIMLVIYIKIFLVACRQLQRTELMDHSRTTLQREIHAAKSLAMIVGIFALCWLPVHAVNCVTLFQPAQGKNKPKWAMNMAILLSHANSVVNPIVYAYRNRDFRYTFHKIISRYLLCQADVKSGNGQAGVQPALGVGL
Description: HEK 293 cells transfected with the human recombinant A2B adenosine receptor were obtained from Receptor Biology, Inc. (Beltsville, Md. USA).
Binding of 1 [^3H]-DPCPX to HEK 293 cells transfected with the human recombinant A2B adenosine receptors was performed according to the method described by Varani et al., 2000. In particular, assays were carried out for 60 minutes at 25° C. in 100 μl of […] Tris HCl buffer, […] MgCl2, 1 mM EDTA, 0.1 mM benzamidine pH 7.4, 2 IU/ml adenosine deaminase containing 40 nM [^3H]-DPCPX, diluted membranes (20 μg of protein/assay) and at least 6–8 different concentration of tested compounds.
as §2, §3

[4] = molecular target: T4, human A3 adenosine receptor (Homo sapiens, UniProt P0DMS8); assay: [3H]MRE3008F20 binding to human A3 receptors expressed in CHO cells
T4 construct: expressed in transfected cells; host or cells: CHO cells (membranes)
T4 sequence (P0DMS8 1-318): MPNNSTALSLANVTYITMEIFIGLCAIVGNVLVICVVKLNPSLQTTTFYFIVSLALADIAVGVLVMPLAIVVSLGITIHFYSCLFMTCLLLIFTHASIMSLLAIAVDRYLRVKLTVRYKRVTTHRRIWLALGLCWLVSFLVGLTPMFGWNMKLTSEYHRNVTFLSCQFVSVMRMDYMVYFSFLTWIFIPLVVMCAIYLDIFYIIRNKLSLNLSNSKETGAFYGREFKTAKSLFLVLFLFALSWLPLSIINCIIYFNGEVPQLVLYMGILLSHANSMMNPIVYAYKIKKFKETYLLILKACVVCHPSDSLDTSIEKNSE
Description: as §1
Binding of [^3H]-MRE3008-F20 to CHO cells transfected with the human recombinant A3 adenosine receptors was performed according to Varani et al., 2000. Competition experiments were carried out in duplicate in a final volume of 250 μl in test tubes containing 1 nM [^3H]-MRE3008-F20, 50 mM Tris HCl buffer, […] MgCl2, pH 7.4 and 100 μl of diluted membranes (50 μg of protein/assay) and at least 6–8 different concentrations of examined ligands for 120 minutes at 4° C.
as §2, §3

[5] = geometric mean (95% confidence interval), >1000 = no appreciable binding

| SMILES | Ki [1, 5] [nM] | Ki [2] [nM] | Ki [3] [nM] | Ki [4] [nM] | Ki [1] [nM] | Ki [2, 5] [nM] | Ki [4, 5] [nM] |
| --- | --- | --- | --- | --- | --- | --- | --- |
| CCCn1c(=O)c2[nH]c(-c3cc(NC(=O)Cc4ccc(C(F)(F)F)cc4)nn3C)nc2n(CCC)c1=O [AS32, N-[5-(2,6-dioxo-1,3-dipropyl-2,3,6,9-tetrahydro-1H-purin-8-yl)-1-methyl-1H-pyrazol-3-yl]-2-[4-(trifluoromethyl)phenyl]acetamide] | 746 | > 1000 | 190 | > 1000 |  |  |  |
| CCCn1c(=O)c2c(nc(/C=C/c3cc(C(=O)OCC)n(C)c3)n2C)n(CCC)c1=O [AS33, ethyl 4-[(E)-2-(7-methyl-1,3-dipropyl-2,6-dioxo-2,3,6,7-tetrahydro-1H-purin-8-yl)vinyl]-1-methyl-1H-pyrrole-2-carboxylate] |  | > 1000 | > 1000 | > 1000 | > 1000 |  |  |
| Cn1nc(N)cc1-c1nc2c([nH]1)c(=O)n(C)c(=O)n2C [AS38, 8-(3-amino-1-methyl-1H-pyrazol-5-yl)-1,3-dimethyl-3,7-dihydro-1H-purine-2,6-dione] |  | > 1000 | 175 | > 1000 | > 1000 |  |  |
| CCCn1c(=O)c2[nH]c(-c3cc(NC(=O)Cc4ccc(F)c(F)c4)nn3C)nc2n(CCC)c1=O [AS43, N-[5-(2,6-dioxo-1,3-dipropyl-2,3,6,9-tetrahydro-1H-purin-8-yl)-1-methyl-1H-pyrazol-3-yl]-2-(3,4-difluorophenyl)acetamide] | 1900 | > 1000 | 130 | > 1000 |  |  |  |
| CCCn1c(=O)c2[nH]c(-c3cc(NC(=O)Nc4ccc(OC)cc4)nn3C)nc2n(CCC)c1=O [AS49, 1-[5-(2,6-Dioxo-1,3-dipropyl-2,3,6,7-tetrahydro-1H-purin-8-yl)-1-methyl-1H-pyrazol-3-yl]-3-(4-methoxy-phenyl)-urea] | 1440 | > 1000 | 81 | > 1000 |  |  |  |
| CCCn1c(=O)c2[nH]c(-c3cc(NC(=O)Nc4ccc(N(C)C)cc4)nn3C)nc2n(CCC)c1=O [AS53, N-[4-(dimethylamino)phenyl]-N'-[5-(2,6-dioxo-1,3-dipropyl-2,3,6,7-tetrahydro-1H-purin-8-yl)-1-methyl-1H-pyrazol-3-yl]urea] | 2410 | > 1000 | 59 | > 1000 |  |  |  |
| CCCn1c(=O)c2[nH]c(-c3cc(NC(=O)Nc4cccc(OC)c4)nn3C)nc2n(CCC)c1=O [AS55, N-[5-(2,6-dioxo-1,3-dipropyl-2,3,6,7-tetrahydro-1H-purin-8-yl)-1-methyl-1H-pyrazol-3-yl]-N'-(3-methoxyphenyl)urea] | 1990 | > 1000 | 90 | > 1000 |  |  |  |
| CCCn1c(=O)c2[nH]c(-c3cc(OCC(=O)Nc4ccc(C)cc4)nn3C)nc2n(CCC)c1=O [AS59, N-(4-methylphenyl)-2-{[5-(1,3-dipropyl-2,6-dioxo-2,3,6,7-tetrahydro-1H-purin-8-yl)-1-methyl-1H-pyrazol-3-yl]oxy}acetamide] | > 1000 |  | 1010 |  |  | > 1000 | > 1000 |
| CCCn1c(=O)c2nc(-c3cc(OCC(=O)Nc4ccc(Br)cc4)n(C)n3)[nH]c2n(CCC)c1=O [AS60, N-(4-bromophenyl)-2-{[3-(2,6-dioxo-1,3-dipropyl-2,3,6,9-tetrahydro-1H-purin-8-yl)-1-methyl-1H-pyrazol-5-yl]oxy}acetamide] | 168 | > 1000 | 93 | > 1000 |  |  |  |

Continued, in another order:

| Ki [1, 5] [nM] | Ki [2] [nM] | Ki [3] [nM] | Ki [4] [nM] | Ki [1] [nM] | SMILES | Ki [2, 5] [nM] | Ki [4, 5] [nM] |
| --- | --- | --- | --- | --- | --- | --- | --- |
| 200 | > 1000 | 88 | > 1000 |  | CCCn1c(=O)c2[nH]c(-c3cc(NC(=O)Cc4ccc(F)cc4)nn3C)nc2n(CCC)c1=O [AS22, N-[5-(2,6-dioxo-1,3-dipropyl-2,3,6,9-tetrahydro-1H-purin-8-yl)-1-methyl-1H-pyrazol-3-yl]-2-(4-fluorophenyl)acetamide] |  |  |
| 850 | > 1000 | 100 | > 1000 |  | CCCn1c(=O)c2[nH]c(-c3cc(NC(=O)Cc4ccc(OC)cc4)nn3C)nc2n(CCC)c1=O [AS23, 2-(4-methoxyphenyl)-N-[5-(2,6-dioxo-1,3-dipropyl-2,3,6,9-tetrahydro-1H-purin-8-yl)-1-methyl-1H-pyrazol-3-yl]acetamide] |  |  |
| 4480 | > 1000 | 160 | > 1000 |  | CCCn1c(=O)c2[nH]c(-c3cc(NC(=O)Cc4cccc(Cl)c4)nn3C)nc2n(CCC)c1=O [AS24, N-[5-(2,6-dioxo-1,3-dipropyl-2,3,6,9-tetrahydro-1H-purin-8-yl)-1-methyl-1H-pyrazol-3-yl]-2-(3-chlorophenyl)acetamide] |  |  |
| 3230 | > 1000 | 50 | > 1000 |  | CCCn1c(=O)c2[nH]c(-c3cc(NC(=O)Cc4cccc(F)c4)nn3C)nc2n(CCC)c1=O [AS25, N-[5-(2,6-dioxo-1,3-dipropyl-2,3,6,9-tetrahydro-1H-purin-8-yl)-1-methyl-1H-pyrazol-3-yl]-2-(3-fluorophenyl)acetamide] |  |  |
| 100 | > 1000 | 90 | > 1000 |  | CCCn1c(=O)c2[nH]c(-c3cc(NC(=O)Cc4ccc(OCc5cccc(C(F)(F)F)c5)cc4)nn3C)nc2n(CCC)c1=O [AS30, N-[5-(2,6-dioxo-1,3-dipropyl-2,3,6,9-tetrahydro-1H-purin-8-yl)-1-methyl-1H-pyrazol-3-yl]-2-(4-{[3-(trifluoromethyl)benzyl]oxy}phenyl)acetamide] |  |  |
| 163 | > 1000 | 111 | > 1000 |  | CCCn1c(=O)c2[nH]c(-c3cc(NC(=O)Cc4ccc(OCc5ccc([N+](=O)[O-])cc5)cc4)nn3C)nc2n(CCC)c1=O [AS31, N-[5-(2,6-dioxo-1,3-dipropyl-2,3,6,9-tetrahydro-1H-purin-8-yl)-1-methyl-1H-pyrazol-3-yl]-2-(4-{4-nitro-benzyloxy}phenyl)acetamide] |  |  |
|  | 2430 | 100 | > 1000 | 1790 | CCCn1c(=O)c2[nH]c(-c3cc(NC(=O)Cc4ccc(OCc5ccccc5)c(OC)c4)nn3C)nc2n(CCC)c1=O [AS56, 2-[4-(benzyloxy)-3-methoxyphenyl]-N-[5-(2,6-dioxo-1,3-dipropyl-2,3,6,9-tetrahydro-1H-purin-8-yl)-1-methyl-1H-pyrazol-3-yl]acetamide] |  |  |

From US7205403B2, “8-Heteroaryl xanthine adenosine A2B receptor antagonists” (King Pharmaceuticals Research and Development, Inc., priority 2002, dated 2007)
